Measurements published in patent US10246462B2, “Chemokine receptor modulators and uses thereof” (FLX Bio, Inc., priority 2016, dated 2019).
Where a name gives a salt, the structure may show the parent alone.

target: CCR4 (Homo sapiens (Human), UniProt P51679); experiment: Calcium mobilization (Ca Flux) assay; type: cell-based; conditions: not given
Procedure: Calcium Mobilization Assay. Calcium mobilization experiments may be performed by labeling the human T-cell line CEM with […] dye (45 min at room temperature), washing with PBS, and re-suspending into flux buffer (HBSS with 1% FBS).

Sequence of CCR4 (P51679 whole entry): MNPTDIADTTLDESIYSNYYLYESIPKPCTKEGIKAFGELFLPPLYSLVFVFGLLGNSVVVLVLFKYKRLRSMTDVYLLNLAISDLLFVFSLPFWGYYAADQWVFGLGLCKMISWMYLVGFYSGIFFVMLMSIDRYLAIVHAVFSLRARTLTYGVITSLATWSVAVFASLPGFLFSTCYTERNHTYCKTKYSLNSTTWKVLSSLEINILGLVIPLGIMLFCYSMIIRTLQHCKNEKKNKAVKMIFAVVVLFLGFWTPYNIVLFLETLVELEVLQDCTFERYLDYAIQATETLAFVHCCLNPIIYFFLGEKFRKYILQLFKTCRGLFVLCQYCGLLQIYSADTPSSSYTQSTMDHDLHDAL

Row | SMILES | IC50
1 | CC1CN(c2cnc3c(C(N)=O)nn([C@H](C)c4ccc(Cl)cc4Cl)c3n2)CCC1N1CCCCC1 (stereo partly drawn) [Example 5, 1-((R)-1-(2,4-Dichlorophenyl)ethyl)-6-(3′-methyl-[1,4′-bipiperidin]-1′-yl)-1H-pyrazolo[3,4-b]pyrazine-3-carboxamide 2,2,2-trifluoroacetate] | 100 to 500 nM
2 | C[C@@H]1CC(c2cnc3c(C#N)nn([C@H](C)c4ccc(Cl)cc4Cl)c3n2)=CCC1N1CCC[C@H]1C (stereo partly drawn) [Example 83] | < 100 nM
3 | Cc1nn([C@H](C)c2ccc(Cl)cc2Cl)c2nc(N3CC[C@H](N4C[C@H](O)C[C@H]4C(=O)O)[C@H](C)C3)cnc12 [Example 37, (2S,4R)-1-((3R,4S)-1-(1-((R)-1-(2,4-Dichlorophenyl)ethyl)-3-methyl-1H-pyrazolo[3,4-b]pyrazin-6-yl)-3-methylpiperidin-4-yl)-4-hydroxypyrrolidine-2-carboxylic acid 2,2,2-trifluoroacetate] | > 500 nM
4 | Cc1nn([C@H](C)c2ccc(Cl)cc2Cl)c2nc(N3CCC(N4CCC[C@H]4CCC(O)C(F)(F)F)C(C)C3)cnc12 (single isomer, unassigned) [Example 46, hydrochloride] | 100 to 500 nM
5 | Cc1nn([C@H](C)c2ccc(Cl)cc2Cl)c2nc(N3CC[C@H](N4CCC[C@H]4CCC(=O)O)[C@H](C)C3)cnc12 [Example 42, 3-((S)-1-((3R,4S)-1-(1-((R)-1-(2,4-dichlorophenyl)ethyl)-3-methyl-1H-pyrazolo[3,4-b]pyrazin-6-yl)-3-methylpiperidin-4-yl)pyrrolidin-2-yl)propanoic acid hydrochloride] | 100 to 500 nM
6 | Cc1nn([C@H](C)c2ccc(Cl)cc2Cl)c2nc(N3CCC(N4CCC[C@H]4CCC(O)C(F)(F)F)C(C)C3)cnc12 (single isomer, unassigned) [Example 47, hydrochloride] | 100 to 500 nM
7 | CC1CC(c2cnc3c(C#N)nn([C@H](C)c4ccc(Cl)cc4Cl)c3n2)=CCC1N1CCC[C@H]1C(N)=O (stereo partly drawn) [Example 79, (2S)-1-(4-(3-Cyano-1-((R)-1-(2,4-dichlorophenyl)ethyl)-1H-pyrazolo[3,4-b]pyrazin-6-yl)-6-methylcyclohex-3-en-1-yl)pyrrolidine-2-carboxamide hydrochloride] | < 100 nM
8 | C[C@@H]1CC(c2cnc3c(C#N)nn([C@H](C)c4ccc(Cl)cc4Cl)c3n2)=CC[C@@H]1N1CCC[C@H]1CNS(C)(=O)=O [Example 82, N—(((S)-1-((1S,6R)-4-(3-Cyano-1-((R)-1-(2,4-dichlorophenyl)ethyl)-1H-pyrazolo[3,4-b]pyrazin-6-yl)-6-methylcyclohex-3-en-1-yl)pyrrolidin-2-yl)methyl)methanesulfonamide hydrochloride] | 100 to 500 nM
9 | C[C@@H]1CC(c2cnc3c(C#N)nn([C@H](C)c4ccc(Cl)cc4Cl)c3n2)=CC[C@@H]1N1CCC[C@H]1CO [Example 76, 1-((R)-1-(2,4-Dichlorophenyl)ethyl)-6-((4S,5R)-4-((S)-2-(hydroxymethyl)pyrrolidin-1-yl)-5-methylcyclohex-1-en-1-yl)-1H-pyrazolo[3,4-b]pyrazine-3-carbonitrile] | < 100 nM
10 | Cc1nn([C@H](C)c2ccc(Cl)cc2Cl)c2nc(N3CCC(N4CCCC(CCC(=O)O)C4)C(C)C3)cnc12 (mixture of isomers) [Example 41, 3-(1′-(1-((R)-1-(2,4-dichlorophenyl)ethyl)-3-methyl-1H-pyrazolo[3,4-b]pyrazin-6-yl)-3′-methyl-[1,4′-bipiperidin]-3-yl)propanoic acid] | > 500 nM
11 | CC1CN(c2cnc3c(C(N)=O)nn(C(C)c4ccc(Cl)cc4Cl)c3n2)CCC1N1CCCCC1 (stereo not drawn) [Example 4, 1-(1-(2,4-Dichlorophenyl)ethyl)-6-(3′-methyl-[1,4′-bipiperidin]-1′-yl)-1H-pyrazolo[3,4-b]pyrazine-3-carboxamide hydrochloride] | 100 to 500 nM
12 | Cc1nn([C@H](C)c2ccc(Cl)cc2Cl)c2nc(C3=CC[C@H](N4CCC[C@H]4CCC(=O)O)[C@H](C)C3)cnc12 [Example 71, 3-((S)-1-((1S,6R)-4-(1-((R)-1-(2,4-Dichlorophenyl)ethyl)-3-methyl-1H-pyrazolo[3,4-b]pyrazin-6-yl)-6-methylcyclohex-3-en-1-yl)pyrrolidin-2-yl)propanoic acid hydrochloride] | < 100 nM
13 | C[C@@H]1CN(c2cnc3c(C#N)nn([C@H](C)c4ccc(Cl)cc4F)c3n2)CC[C@@H]1N1CCC[C@H]1CCC(=O)O [Example 90, 3-((S)-1-((3R,4S)-1-(1-((R)-1-(4-chloro-2-fluorophenyl)ethyl)-3-cyano-1H-pyrazolo[3,4-b]pyrazin-6-yl)-3-methylpiperidin-4-yl)pyrrolidin-2-yl)propanoic acid hydrochloric acid] | < 100 nM
14 | C[C@@H]1CN(c2cnc3c(C#N)nn([C@H](C)c4ccc(Cl)cc4Cl)c3n2)CC[C@@H]1N1CCC[C@H]1C(=O)O [Example 35, ((3R,4S)-1-(3-Cyano-1-((R)-1-(2,4-dichlorophenyl)ethyl)-1H-pyrazolo[3,4-b]pyrazin-6-yl)-3-methylpiperidin-4-yl)-L-proline 2,2,2-trifluoroacetate] | 100 to 500 nM
15 | CC(c1ccc(Cl)cc1Cl)n1nc(C(N)=O)c2ncc(N3CCC(N4CCCCC4)C(CO)C3)nc21 (stereo not drawn) [Example 27, 1-(1-(2,4-Dichlorophenyl)ethyl)-6-(3′-(hydroxymethyl)-[1,4′-bipiperidin]-1′-yl)-1H-pyrazolo[3,4-b]pyrazine-3-carboxamide hydrochloride] | 100 to 500 nM
16 | CNC(=O)[C@@H]1CCCN1[C@H]1CC=C(c2cnc3c(C#N)nn([C@H](C)c4ccc(Cl)cc4Cl)c3n2)C[C@H]1C [Example 91, (S)-1-((1S,6R)-4-(3-Cyano-1-((R)-1-(2,4-dichlorophenyl)ethyl)-1H-pyrazolo[3,4-b]pyrazin-6-yl)-6-methylcyclohex-3-en-1-yl)-N-methylpyrrolidine-2-carboxamide trifluoroacetate] | 100 to 500 nM
17 | Cc1nn([C@H](C)c2ccc(Cl)cc2Cl)c2nc(N3CCC(N4CCC[C@H]4CCN)[C@H](C)C3)cnc12 (stereo partly drawn) [Example 45, 3-((R)-1-((3R,4S)-1-(1-((R)-1-(2,4-Dichlorophenyl)ethyl)-3-methyl-1H-pyrazolo[3,4-b]pyrazin-6-yl)-3-methylpiperidin-4-yl)pyrrolidin-2-yl)ethan-1-amine] | 100 to 500 nM
18 | CCN(CC1(O)COC1)C1CC=C(c2cnc3c(C#N)nn([C@H](C)c4ccc(Cl)cc4Cl)c3n2)CC1C (stereo partly drawn) [Example 92, 1-((R)-1-(2,4-dichlorophenyl)ethyl)-6-(4-(ethyl((3-hydroxyoxetan-3-yl)methyl)amino)-5-methylcyclohex-1-en-1-yl)-1H-pyrazolo[3,4-b]pyrazine-3-carbonitrile] | 100 to 500 nM
19 | Cc1nn([C@H](C)c2ccc(Cl)cc2Cl)c2nc(N3CCC(N4CCC(F)CC4)C(C)C3)cnc12 (stereo partly drawn) [Example 61, 1-((R)-1-(2,4-Dichlorophenyl)ethyl)-6-(4-fluoro-3′-methyl-[1,4′-bipiperidin]-1′-yl)-3-methyl-1H-pyrazolo[3,4-b]pyrazine hydrochloride] | 100 to 500 nM
20 | Cc1nn([C@H](C)c2ccc(Cl)cc2Cl)c2nc(C3=CC[C@H](N4CCC[C@H]4C(N)=O)[C@H](C)C3)cnc12 [Example 86, (S)-1-((1S,6R)-4-(1-((R)-1-(2,4-Dichlorophenyl)ethyl)-3-methyl-1H-pyrazolo[3,4-b]pyrazin-6-yl)-6-methylcyclohex-3-en-1-yl)pyrrolidine-2-carboxamide hydrochloride] | 100 to 500 nM
21 | Cc1nn([C@H](C)c2ccc(Cl)cc2Cl)c2nc(N3CC[C@@H](N4CCC[C@H]4CCS(N)(=O)=O)[C@@H](C)C3)cnc12 [Example 53, 2-((S)-1-((3S,4R)-1-(1-((R)-1-(2,4-Dichlorophenyl)ethyl)-3-methyl-1H-pyrazolo[3,4-b]pyrazin-6-yl)-3-methylpiperidin-4-yl)pyrrolidin-2-yl)ethane-1-sulfonamide hydrochloride] | 100 to 500 nM
22 | Cc1nn([C@H](C)c2ccc(Cl)cc2Cl)c2nc(N3CCC(N4CCC[C@H]4CCC(=O)O)CC3)cnc12 [Example 51, 3-((S)-1-(1-(1-((R)-1-(2,4-Dichlorophenyl)ethyl)-3-methyl-1H-pyrazolo[3,4-b]pyrazin-6-yl)piperidin-4-yl)pyrrolidin-2-yl)propanoic acid 2,2,2-trifluoroacetate] | 100 to 500 nM
23 | COC[C@@H]1CCCN1C1CC=C(c2cnc3c(C#N)nn([C@H](C)c4ccc(Cl)cc4Cl)c3n2)CC1C (mixture of isomers) [Example 84, 1-((R)-1-(2,4-Dichlorophenyl)ethyl)-6-(4-((S)-2-(methoxymethyl)pyrrolidin-1-yl)-5-methylcyclohex-1-en-1-yl)-1H-pyrazolo[3,4-b]pyrazine-3-carbonitrile hydrochloride] | 100 to 500 nM

same assay, conditions: hydrochloride

Row | SMILES | IC50
24 | Cc1nn([C@H](C)c2ccc(Cl)cc2Cl)c2nc(C3=CCC(N4CCC[C@H]4CCC(=O)O)C(C)C3)cnc12 (stereo in doubt) [Example 72, 3-((S)-1-((1R,6S)-4-(1-((R)-1-(2,4-Dichlorophenyl)ethyl)-3-methyl-1H-pyrazolo[3,4-b]pyrazin-6-yl)-6-methylcyclohex-3-en-1-yl)pyrrolidin-2-yl)propanoic acid hydrochloride] | > 500 nM
